Assay type in all cases: cell-based
The subject of experiment [1] is Friends leukemia virus. Nature of the experiment: CPE inhibition in SC-1 cells infected with murine leukemia virus, XC cell overlay. The settings on record: SC1, 120 h, SC-1 cells from a feral mouse, XC cells added after 5 days, read-out: IC₅₀. On the procedure: The following procedure was used to establish the efficacy of a representative compound of the present invention against Friends leukemia virus. SC-1 cells from a feral mouse were seeded subconfluently at 2-5 x 10³ cells per well in 96 microwell plates with complete MEM media plus 2 mcg/ml polybrene overnight at 37°C under a carbon dioxide atmosphere. The medium was removed. The cultures were infected with a proper dilution of murine leukemia virus (50 mcl/well) and were allowed to adsorb for about two hours at room temperature. After adsorption, the virus containing medium was removed and replaced with fresh complete MEM, both with and without dilutions of the compound of Example 1, and reincubated at 37°C under carbon dioxide for 5 days or until the cells reached confluence. The medium was removed and the cells were exposed for 10 seconds to a UV germicidal light. XC cells from a Rous sarcoma virus induced rat tumor cell line at a concentration of 5-8 x 10⁴ cells/well were added to the irradiated SC-1 monolayers. The cultures were incubated at 37°C under carbon dioxide for three days until CPE occurred in the control wells. Cultures were fixed with formalin and stained with crystal violet. The results were scored as CPE inhibition.

Experiment [2] deals with HSV-1. Nature of the experiment: Plaque-reduction study against HSV-1. The settings on record: HSV-1 plaque reduction. On the procedure: (§1) The following plaque-reduction study provides a quantitative evaluation of inhibitors of virus multiplication and establishes the antiviral activity of a representative compound of the present invention. According to this study, susceptible cells (BSC-1, Hela, MDCK, etc.) were grown in 25 cm² Falcon flasks at 37°C in Medium 199 with 5 percent inactivated fetal bovine serum (FBS), penicillin (150 units/ml) and streptomycin (150 »g/ml). When confluent monolayers were formed, the growth medium was removed and 0.3 ml of an appropriate dilution of the virus was added to each flask. After adsorption for one hour at room temperature, the infected cell sheet was overlaid with equal parts of 1 percent Agarose and 2x Medium 199, 2.5 percent FBS, penicillin, and streptomycin. The compound to be tested was dissolved in dimethyl sulfoxide (DMSO) at a concentration of 10,000 »g/ml and an aliquot of the resulting solution was diluted to the desired concentration with the agar medium mixture. Flasks were incubated at 37°C until control flasks indicated optimum plaque size of about 2 to about 10 mm. A solution containing 10 percent formalin by volume and 2 percent sodium acetate by volume was added to each flask to inactivate the virus and fix the cell sheet to the plastic surface. The plaques were counted after staining the surrounding cell areas with crystal violet. Results from duplicate flasks at each concentration were averaged and compared with control flasks. The following degrees of inhibition against HSV-1 were observed.

For experiment [3], the system named is human leukemic cells (CCRF-CEM cell line). Description: Cytotoxicity screen: growth inhibition of human leukemic cells. The settings on record: read-out: IC₅₀ (concentration giving 50% growth inhibition). An excerpt:
See, e.g., Miller et al., in J. Med. Chem. Vol. 20, No. 3 409 (1977) and Sweeney, et al., in Cancer Research 38, 2886 (1978).
The compounds of the present invention represented by Formula I are cytostatic in that they inhibit the growth of human leukemic cells (CCRF-CEM cell line). Table 1 below gives the results of such testing of compounds representative of those in Formula I. In the Table, column 1 gives the example number of the compound and column 2 the IC₅₀ (concentration giving 50% growth inhibition) in mcg/ml.

For experiment [4], the system named is HSV-2. Nature of the experiment: Plaque-reduction study against HSV-2. The settings on record: HSV-2 plaque reduction. The method, then: as §1, with “Results from duplicate flasks at each concentration were averaged and compared with control flasks. The following degrees of inhibition against HSV-1 were observed.” left out

Converted amounts (≈) assume the structure as drawn. Bounds are passed on as bounds.

In general, inhibition refers to the percentage by which the read-out fell short of the control. Low readings indicate a response near the control, high ones a response far below the control. As a reminder, the Inhibition is the relative decrease from the control value, in per cent.

Take `Nc1ccn([C@@H]2O[C@H](CO)CC2(F)F)c(=O)n1` [Example 1, β-1-(4-Amino-2-oxo-1H-pyrimidin-1-yl)-2,3-dideoxy-2,2-difluororibose]: the IC50 in experiment [1] was 6.5 µg/mL (≈ 26.3 µM); in experiment [3] it was 1.9 µg/mL (≈ 7.69 µM). In experiment [2] (Human alphaherpesvirus 1, concentration 15 ug/ml), this molecule had an inhibition at 15 µg/mL of 50%.
Turning to `Nc1nc(N)c2ncn([C@@H]3O[C@H](CO)CC3(F)F)c2n1` [Example 2, β-1-(2,6-diamino-9H-purin-9-yl)-2,3-dideoxy-2,2-difluororibose], the Inhibition in experiment [2] (concentration 3.1 (unit ug/ml)) was 27%. The IC50 in experiment [3] was determined as 1.9 µg/mL (≈ 6.64 µM).
On to `Nc1nc2c(ncn2[C@@H]2O[C@H](CO)CC2(F)F)c(=O)[nH]1` [Example 3, β-1-(2-amino-6-oxo-9H-purin-9-yl)-2,3-dideoxy-2,2-difluororibose], for which, in experiment [4] (Human alphaherpesvirus 2, concentration 25 ug/ml), the inhibition at 25 µg/mL is 21%. Moreover, the IC50 in experiment [3] was determined as 8.5 µg/mL (≈ 29.6 µM).
In the case of `Cc1cn([C@@H]2O[C@H](CO)[C@@H](N=[N+]=[N-])C2(F)F)c(=O)[nH]c1=O` [Example 4, β-1-(5-methyl-2,4-dioxo-1H,3H-pyrimidin-1-yl)-3-azido-2,3-dideoxy-2,2-difluororibose], the values for the Inhibition in experiment [4] (concentration 13.5 (unit ug/ml)) and in experiment [2] (concentration 25 (unit ug/ml)) were 50% and 39%, respectively. In addition, the IC50 in experiment [3] came to 23.4 µg/mL (≈ 77.2 µM).
Consider `Cc1cn([C@@H]2O[C@H](CO)CC2(F)F)c(=O)[nH]c1=O` [Example 5, β-1-(5-methyl-2,4-dioxo-1H,3H-pyrimidin-1-yl)-2,3-dideoxy-2,2-difluororibose], for which the Inhibition in experiment [2] (concentration 25 (unit ug/ml)) amounted to 35%. Besides, the IC50 in experiment [3] is above 20 µg/mL.

The values above are taken from patent EP0329348B1, “2',3'-Dideoxy-2',2'-difluoronucleosides” (ELI LILLY AND COMPANY, priority 1988, dated 1989).
